# Laboratory results published in patent US10710978B2, “STK4 inhibitors for treatment of hematologic malignancies” (Dana-Farber Cancer Institute, Inc., priority 2015, dated 2020).
# Several values for one entry are separate records, joined by “and”; a condition that tells them apart may be missing. Equal values may be shown once. Read-outs that look alike come from different tables or passages of the source.
# Experiments:
# STK24 (MST3) = STK24 (MST3) (Homo sapiens (Human), UniProt Q9Y6E0); assay: Z-lyte biochemical IC50 assay (Invitrogen); details: ATP concentration matched the Km
# Outline: (§1)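 FRET-based Z-lyte kinase assays run at Invitrogen, ATP at each kinase's Km; for STK4, 6.25-160 ng enzyme with 2 μM Ser/Thr 07 peptide in HEPES pH 7.5, MgCl2, EGTA, Brij-35, 1 h reaction then development reagent. 10-point 3-fold titration from 10 μM.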
# STK4 (MST1) = STK4 (MST1) (Homo sapiens (Human), UniProt Q13043); assay: Z-lyte biochemical IC50 assay (Invitrogen); details: ATP concentration matched the Km
# Outline: as §1
# AKT2, AKT3 = assay: KiNativ assay; format: binding; details: H929 live cell; for % inhibition (range): 10 μM
# Outline: (§2)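 H929 live-cell screen at 10 μM, run in duplicate. Kinase occupancy was assessed via the KiNativ platform, with IC50 determined by mass spectrometry.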
# AMPKa1, AMPKa2 = assay: KiNativ assay; format: binding; details: H929 live cell; for % inhibition (range): 10 μM
# Experimental: (§3) Biochemical IC50s of the compounds of the present disclosure against various kinases were measured in a KiNativ assay. Compounds were screened in duplicate at 10 μM in H929 live cell. IC50 was measured via Mass spectroscopy (MS).
# AurA = AurA (Homo sapiens (Human), UniProt O14965); assay: KiNativ assay; format: binding; details: H929 live cell
# Experimental: as §3
# CDK2 = CDK2 (Homo sapiens (Human), UniProt P24941); assay: KiNativ assay; format: binding; details: H929 live cell
# Experimental: as §3
# CHK1 = CHK1 (Homo sapiens (Human), UniProt O14757); assay: KiNativ assay; format: binding; details: H929 live cell
# Experimental: as §3
# CHK2 = CHK2 (Homo sapiens (Human), UniProt O96017); assay: KiNativ assay; format: binding; details: H929 live cell
# Experimental: as §3
# CK1g3 = CK1g3 (Homo sapiens (Human), UniProt Q9Y6M4); assay: KiNativ assay; format: binding; details: H929 live cell
# Experimental: as §3
# DNAPK = DNAPK (Homo sapiens (Human), UniProt P78527); assay: KiNativ assay; format: binding; details: H929 live cell; for % inhibition (range): 10 μM
# Experimental: as §3
# JAK1 domain2 = JAK1 domain2 (Homo sapiens (Human), UniProt P23458); assay: KiNativ assay; format: binding; details: H929 live cell
# Experimental: as §3
# LOK = LOK (Homo sapiens (Human), UniProt O94804); assay: KiNativ assay; format: binding; details: H929 live cell
# Experimental: as §3
# MAP2K4 = MAP2K4 (Homo sapiens (Human), UniProt P45985); assay: KiNativ assay; format: binding; details: H929 live cell
# Experimental: as §3
# NEK4 = NEK4 (Homo sapiens (Human), UniProt P51957); assay: KiNativ assay; format: binding; details: H929 live cell
# Experimental: as §3
# NEK7 = NEK7 (Homo sapiens (Human), UniProt Q8TDX7); assay: KiNativ assay; format: binding; details: H929 live cell
# Experimental: as §3
# RIPK3 = RIPK3 (Homo sapiens (Human), UniProt Q9Y572); assay: KiNativ assay; format: binding; details: H929 live cell
# Outline: as §2
# SGK3 = SGK3 (Homo sapiens (Human), UniProt Q96BR1); assay: KiNativ assay; format: binding; details: H929 live cell
# Experimental: as §3
# STLK3 = STLK3 (Homo sapiens (Human), UniProt Q9UEW8); assay: KiNativ assay; format: binding; details: H929 live cell
# Experimental: as §3
# TLK1 = TLK1 (Homo sapiens (Human), UniProt Q9UKI8); assay: KiNativ assay; format: binding; details: H929 live cell
# Experimental: as §3
# Wnk1, Wnk2, Wnk3 = assay: KiNativ assay; format: binding; details: H929 live cell; for % inhibition (range): 10 μM
# Experimental: as §3
# eEF2K = eEF2K (Homo sapiens (Human), UniProt O00418); assay: KiNativ assay; format: binding; details: H929 live cell
# Experimental: as §3
# Sequence of CHK1 (O14757 whole entry): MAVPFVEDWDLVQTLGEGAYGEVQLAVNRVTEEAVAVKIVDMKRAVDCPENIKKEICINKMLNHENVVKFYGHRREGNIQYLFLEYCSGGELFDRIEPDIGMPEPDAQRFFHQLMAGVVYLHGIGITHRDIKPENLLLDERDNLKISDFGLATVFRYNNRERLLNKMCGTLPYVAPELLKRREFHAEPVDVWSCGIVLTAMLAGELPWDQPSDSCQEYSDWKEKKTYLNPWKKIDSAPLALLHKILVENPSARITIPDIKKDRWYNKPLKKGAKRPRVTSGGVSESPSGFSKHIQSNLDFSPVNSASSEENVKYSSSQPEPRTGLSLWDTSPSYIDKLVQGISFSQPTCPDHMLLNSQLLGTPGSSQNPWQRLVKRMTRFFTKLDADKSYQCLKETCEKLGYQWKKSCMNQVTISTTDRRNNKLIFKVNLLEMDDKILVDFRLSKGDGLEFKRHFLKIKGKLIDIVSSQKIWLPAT
# Sequence of DNAPK (P78527 whole entry): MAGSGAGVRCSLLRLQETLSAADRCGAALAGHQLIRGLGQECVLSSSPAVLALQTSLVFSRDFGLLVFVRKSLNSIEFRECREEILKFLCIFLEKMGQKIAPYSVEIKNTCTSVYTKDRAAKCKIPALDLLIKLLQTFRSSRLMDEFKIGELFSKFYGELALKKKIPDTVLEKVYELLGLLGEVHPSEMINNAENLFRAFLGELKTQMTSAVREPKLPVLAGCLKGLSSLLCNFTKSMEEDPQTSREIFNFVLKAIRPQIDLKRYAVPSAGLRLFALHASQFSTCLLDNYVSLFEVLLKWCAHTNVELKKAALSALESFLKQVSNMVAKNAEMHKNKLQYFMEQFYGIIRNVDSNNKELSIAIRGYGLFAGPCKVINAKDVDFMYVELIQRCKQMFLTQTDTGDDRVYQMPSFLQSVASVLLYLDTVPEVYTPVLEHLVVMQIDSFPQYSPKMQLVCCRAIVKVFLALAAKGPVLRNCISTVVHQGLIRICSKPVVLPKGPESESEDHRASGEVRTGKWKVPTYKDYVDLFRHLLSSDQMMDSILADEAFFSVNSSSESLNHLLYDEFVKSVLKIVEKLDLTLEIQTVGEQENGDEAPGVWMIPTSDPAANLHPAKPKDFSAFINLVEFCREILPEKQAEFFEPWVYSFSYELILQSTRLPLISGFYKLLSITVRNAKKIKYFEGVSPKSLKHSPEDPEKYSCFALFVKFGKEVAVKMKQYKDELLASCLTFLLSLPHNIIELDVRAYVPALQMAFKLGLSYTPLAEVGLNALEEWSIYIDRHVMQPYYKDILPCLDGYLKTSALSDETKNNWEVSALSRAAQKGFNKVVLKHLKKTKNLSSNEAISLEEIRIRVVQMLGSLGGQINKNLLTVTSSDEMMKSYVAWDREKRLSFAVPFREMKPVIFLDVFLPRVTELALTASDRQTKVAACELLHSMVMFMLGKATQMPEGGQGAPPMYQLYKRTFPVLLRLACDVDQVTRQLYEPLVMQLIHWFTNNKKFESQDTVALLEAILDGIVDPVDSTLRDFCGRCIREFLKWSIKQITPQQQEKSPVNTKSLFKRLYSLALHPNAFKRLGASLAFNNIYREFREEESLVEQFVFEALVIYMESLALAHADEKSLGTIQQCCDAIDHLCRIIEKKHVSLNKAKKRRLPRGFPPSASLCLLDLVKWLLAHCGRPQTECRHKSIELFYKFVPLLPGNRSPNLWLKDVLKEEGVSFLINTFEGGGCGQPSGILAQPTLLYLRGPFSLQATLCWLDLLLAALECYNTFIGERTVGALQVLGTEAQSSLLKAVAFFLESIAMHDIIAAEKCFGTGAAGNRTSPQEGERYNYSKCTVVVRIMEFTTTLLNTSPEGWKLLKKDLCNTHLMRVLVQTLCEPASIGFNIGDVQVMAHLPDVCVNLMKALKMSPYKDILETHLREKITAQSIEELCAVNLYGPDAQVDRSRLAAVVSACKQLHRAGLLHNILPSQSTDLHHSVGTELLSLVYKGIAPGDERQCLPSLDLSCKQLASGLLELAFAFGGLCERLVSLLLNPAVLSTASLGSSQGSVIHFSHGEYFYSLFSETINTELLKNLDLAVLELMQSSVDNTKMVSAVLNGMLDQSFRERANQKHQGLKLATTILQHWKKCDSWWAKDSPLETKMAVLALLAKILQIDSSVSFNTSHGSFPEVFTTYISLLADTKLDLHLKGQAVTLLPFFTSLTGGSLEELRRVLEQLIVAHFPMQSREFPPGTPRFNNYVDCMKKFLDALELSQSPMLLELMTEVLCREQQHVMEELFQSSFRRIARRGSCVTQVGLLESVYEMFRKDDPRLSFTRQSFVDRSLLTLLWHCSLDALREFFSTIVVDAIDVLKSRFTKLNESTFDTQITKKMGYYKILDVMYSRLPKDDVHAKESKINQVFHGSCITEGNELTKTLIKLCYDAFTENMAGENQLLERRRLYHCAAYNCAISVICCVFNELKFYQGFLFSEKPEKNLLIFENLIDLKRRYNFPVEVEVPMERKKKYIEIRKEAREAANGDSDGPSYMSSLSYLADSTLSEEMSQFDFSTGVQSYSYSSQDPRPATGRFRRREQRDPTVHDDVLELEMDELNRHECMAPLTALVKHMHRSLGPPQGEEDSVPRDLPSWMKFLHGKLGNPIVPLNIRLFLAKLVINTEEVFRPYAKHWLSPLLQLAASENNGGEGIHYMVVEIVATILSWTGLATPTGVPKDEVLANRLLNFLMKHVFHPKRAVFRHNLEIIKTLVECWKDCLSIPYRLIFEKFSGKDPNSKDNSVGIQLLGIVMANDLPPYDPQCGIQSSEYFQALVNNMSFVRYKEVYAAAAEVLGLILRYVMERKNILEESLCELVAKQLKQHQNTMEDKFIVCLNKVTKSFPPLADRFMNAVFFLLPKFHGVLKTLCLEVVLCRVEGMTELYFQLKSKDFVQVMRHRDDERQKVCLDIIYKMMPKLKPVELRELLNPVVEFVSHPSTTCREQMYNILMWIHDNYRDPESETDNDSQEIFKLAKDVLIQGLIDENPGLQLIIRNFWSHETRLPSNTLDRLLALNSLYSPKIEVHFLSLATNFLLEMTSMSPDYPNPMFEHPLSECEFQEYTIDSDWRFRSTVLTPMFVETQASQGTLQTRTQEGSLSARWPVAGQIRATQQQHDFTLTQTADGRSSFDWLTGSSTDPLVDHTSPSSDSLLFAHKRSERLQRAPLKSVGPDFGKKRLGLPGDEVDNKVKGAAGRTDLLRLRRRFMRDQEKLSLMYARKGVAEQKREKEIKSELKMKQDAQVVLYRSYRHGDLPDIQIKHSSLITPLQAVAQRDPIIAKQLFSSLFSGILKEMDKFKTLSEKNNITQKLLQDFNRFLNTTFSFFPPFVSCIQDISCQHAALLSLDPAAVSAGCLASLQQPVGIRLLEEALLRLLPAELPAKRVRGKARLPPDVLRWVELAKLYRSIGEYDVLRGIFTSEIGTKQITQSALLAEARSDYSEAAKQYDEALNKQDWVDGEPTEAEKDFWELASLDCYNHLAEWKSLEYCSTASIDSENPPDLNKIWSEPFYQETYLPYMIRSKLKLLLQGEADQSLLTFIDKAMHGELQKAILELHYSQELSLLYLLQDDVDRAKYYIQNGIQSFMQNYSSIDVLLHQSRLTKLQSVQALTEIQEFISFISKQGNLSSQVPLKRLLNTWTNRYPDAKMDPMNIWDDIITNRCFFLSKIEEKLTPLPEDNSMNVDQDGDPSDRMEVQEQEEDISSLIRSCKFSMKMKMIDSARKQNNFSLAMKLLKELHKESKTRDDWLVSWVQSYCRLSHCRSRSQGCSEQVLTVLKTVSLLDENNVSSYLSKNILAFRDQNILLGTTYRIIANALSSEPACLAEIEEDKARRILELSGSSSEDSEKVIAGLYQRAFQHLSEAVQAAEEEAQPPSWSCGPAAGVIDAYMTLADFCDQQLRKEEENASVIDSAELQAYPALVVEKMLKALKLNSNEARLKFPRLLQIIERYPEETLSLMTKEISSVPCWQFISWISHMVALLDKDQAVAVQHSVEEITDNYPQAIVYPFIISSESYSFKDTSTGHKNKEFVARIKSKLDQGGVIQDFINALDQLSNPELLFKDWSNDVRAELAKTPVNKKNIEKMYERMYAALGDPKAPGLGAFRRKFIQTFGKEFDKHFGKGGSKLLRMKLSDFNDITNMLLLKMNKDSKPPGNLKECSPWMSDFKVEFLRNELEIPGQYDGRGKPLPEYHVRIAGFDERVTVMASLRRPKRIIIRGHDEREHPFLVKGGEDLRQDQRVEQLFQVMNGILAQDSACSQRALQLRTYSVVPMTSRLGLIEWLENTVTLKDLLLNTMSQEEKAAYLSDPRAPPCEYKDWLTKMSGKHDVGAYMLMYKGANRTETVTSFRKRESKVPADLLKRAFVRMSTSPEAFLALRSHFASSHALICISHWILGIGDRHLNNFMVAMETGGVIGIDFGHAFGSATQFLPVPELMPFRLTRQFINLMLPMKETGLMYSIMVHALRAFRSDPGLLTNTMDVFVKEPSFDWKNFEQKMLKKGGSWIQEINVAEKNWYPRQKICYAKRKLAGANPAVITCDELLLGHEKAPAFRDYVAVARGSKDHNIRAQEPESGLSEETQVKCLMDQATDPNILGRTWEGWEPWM
# Sequence of CHK2 (O96017 whole entry): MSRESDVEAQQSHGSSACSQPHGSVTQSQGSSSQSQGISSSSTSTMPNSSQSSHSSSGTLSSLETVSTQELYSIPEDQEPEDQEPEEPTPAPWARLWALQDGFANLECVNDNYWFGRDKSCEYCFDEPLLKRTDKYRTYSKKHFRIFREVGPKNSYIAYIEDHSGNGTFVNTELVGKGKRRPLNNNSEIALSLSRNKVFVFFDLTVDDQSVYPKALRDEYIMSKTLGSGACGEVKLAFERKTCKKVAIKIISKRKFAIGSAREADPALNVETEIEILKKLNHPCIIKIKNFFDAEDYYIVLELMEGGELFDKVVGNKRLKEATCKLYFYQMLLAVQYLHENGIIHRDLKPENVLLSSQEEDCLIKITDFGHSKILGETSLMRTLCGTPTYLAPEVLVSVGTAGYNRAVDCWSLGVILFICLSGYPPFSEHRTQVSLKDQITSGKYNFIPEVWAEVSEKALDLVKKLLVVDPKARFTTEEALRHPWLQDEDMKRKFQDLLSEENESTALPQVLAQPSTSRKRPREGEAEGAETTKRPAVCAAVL
smiles,measurement,setting,value
"Nc1ncc(-c2cccc([N+](=O)[O-])c2F)cc1-c1ccc2c(c1)CCNC2=O [Compound I-9, 6-(2-amino-5-(2-fluoro-3-nitrophenyl)pyridin-3-yl)-3,4-dihydroisoquinolin-1(2H)-one]",IC50,STK24 (MST3),> 900 nM
same,IC50,STK4 (MST1),< 40 nM
same,% inhibition (range),"AKT2, AKT3",0.0%
same,inhibition (10 μM),"AKT2, AKT3",−1.3%
same,% inhibition (range),"AMPKa1, AMPKa2",50-75%
same,inhibition (10 μM),"AMPKa1, AMPKa2",52.0%
same,% inhibition (range),AurA; 10 μM,50-75% and 75-90%
same,inhibition (10 μM),AurA,75.7%
same,inhibition at 10 µM,AurA; read-out: inhibition (10 μM),68.5%
same,inhibition at 10 µM,CDK2; read-out: % inhibition (range),50 to 75%
same,inhibition at 10 µM,CDK2; read-out: inhibition (10 μM),68.5%
same,inhibition at 10 µM,CHK1; read-out: % inhibition (range),0%
same,inhibition at 10 µM,CHK1; read-out: inhibition (10 μM),14.9%
same,inhibition at 10 µM,CHK2; read-out: % inhibition (range),75 to 90%
same,inhibition at 10 µM,CHK2; read-out: inhibition (10 μM),80.9%
same,inhibition at 10 µM,CK1g3; read-out: % inhibition (range),> 90%
same,inhibition at 10 µM,CK1g3; read-out: inhibition (10 μM),93%
same,% inhibition (range),DNAPK,>90%
same,inhibition (10 μM),DNAPK,94.0%
same,inhibition at 10 µM,DNAPK; read-out: % inhibition (range),75 to 90%
same,inhibition at 10 µM,DNAPK; read-out: inhibition (10 μM),79.4%
same,inhibition at 10 µM,JAK1 domain2; read-out: % inhibition (range),0%
same,inhibition at 10 µM,JAK1 domain2; read-out: inhibition (10 μM),-4.9%
same,inhibition at 10 µM,LOK; read-out: % inhibition (range),> 90%
same,inhibition at 10 µM,LOK; read-out: inhibition (10 μM),98.5%
same,inhibition at 10 µM,MAP2K4; read-out: % inhibition (range),50 to 75%
same,inhibition at 10 µM,MAP2K4; read-out: inhibition (10 μM),72.9%
same,inhibition at 10 µM,NEK4; read-out: % inhibition (range),50 to 75%
same,inhibition at 10 µM,NEK4; read-out: inhibition (10 μM),67%
same,inhibition at 10 µM,NEK7; read-out: % inhibition (range),0%
same,inhibition at 10 µM,NEK7; read-out: inhibition (10 μM),-39.5%
same,inhibition at 10 µM,RIPK3; read-out: % inhibition (range),0%
same,inhibition at 10 µM,RIPK3; read-out: inhibition (10 μM),-33.4%
same,inhibition at 10 µM,SGK3; read-out: % inhibition (range),50 to 75%
same,inhibition at 10 µM,SGK3; read-out: inhibition (10 μM),51.6%
same,inhibition at 10 µM,STLK3; read-out: % inhibition (range),0%
same,inhibition at 10 µM,STLK3; read-out: inhibition (10 μM),-22.9%
same,inhibition at 10 µM,TLK1; read-out: % inhibition (range),0%
same,inhibition at 10 µM,TLK1; read-out: inhibition (10 μM),28.8%
same,% inhibition (range),"Wnk1, Wnk2, Wnk3",>100%
same,inhibition (10 μM),"Wnk1, Wnk2, Wnk3",−105.5%
same,inhibition at 10 µM,eEF2K; read-out: % inhibition (range),0%
same,inhibition at 10 µM,eEF2K; read-out: inhibition (10 μM),-94.7%
"Nc1ncc(-c2cccc3ncsc23)cc1-c1ccc2c(c1)CCNC2=O [Compound I-13, 6-(2-amino-5-(benzo[d]thiazol-7-yl)pyridin-3-yl)-3,4-dihydroisoquinolin-1(2H)-one]",IC50,STK24 (MST3),> 900 nM
same,IC50,STK4 (MST1),< 40 nM
same,% inhibition (range),"AKT2, AKT3",0.0%
same,inhibition (10 μM),"AKT2, AKT3",19.0%
same,% inhibition (range),"AMPKa1, AMPKa2",0.0%
same,inhibition (10 μM),"AMPKa1, AMPKa2",1.8%
same,inhibition (10 μM),AurA,14.7%
same,inhibition at 10 µM,AurA; read-out: % inhibition (range),0%
same,inhibition at 10 µM,AurA; read-out: inhibition (10 μM),17.4%
same,inhibition at 10 µM,CDK2; read-out: % inhibition (range),0%
same,inhibition at 10 µM,CDK2; read-out: inhibition (10 μM),33.3%
same,inhibition at 10 µM,CHK1; read-out: % inhibition (range),0%
same,inhibition at 10 µM,CHK1; read-out: inhibition (10 μM),-8.9%
same,inhibition at 10 µM,CHK2; read-out: % inhibition (range),0%
same,inhibition at 10 µM,CHK2; read-out: inhibition (10 μM),19.7%
same,inhibition at 10 µM,CK1g3; read-out: % inhibition (range),> 90%
same,inhibition at 10 µM,CK1g3; read-out: inhibition (10 μM),90.4%
same,% inhibition (range),DNAPK,50-75%
same,inhibition (10 μM),DNAPK,59.4%
same,inhibition at 10 µM,DNAPK; read-out: % inhibition (range),35 to 50%
same,inhibition at 10 µM,DNAPK; read-out: inhibition (10 μM),44.7%
same,inhibition at 10 µM,JAK1 domain2; read-out: % inhibition (range),0%
same,inhibition at 10 µM,JAK1 domain2; read-out: inhibition (10 μM),-16%
same,inhibition at 10 µM,LOK; read-out: % inhibition (range),50 to 75%
same,inhibition at 10 µM,LOK; read-out: inhibition (10 μM),61.5%
same,inhibition at 10 µM,MAP2K4; read-out: % inhibition (range),35 to 50%
same,inhibition at 10 µM,MAP2K4; read-out: inhibition (10 μM),48.2%
same,inhibition at 10 µM,NEK4; read-out: % inhibition (range),0%
same,inhibition at 10 µM,NEK4; read-out: inhibition (10 μM),4.7%
same,inhibition at 10 µM,NEK7; read-out: % inhibition (range),0%
same,inhibition at 10 µM,NEK7; read-out: inhibition (10 μM),-20.2%
same,inhibition at 10 µM,RIPK3; read-out: % inhibition (range),0%
same,inhibition at 10 µM,RIPK3; read-out: inhibition (10 μM),-25.9%
same,inhibition at 10 µM,SGK3; read-out: % inhibition (range),0%
same,inhibition at 10 µM,SGK3; read-out: inhibition (10 μM),13.1%
same,inhibition at 10 µM,STLK3; read-out: % inhibition (range),0%
same,inhibition at 10 µM,STLK3; read-out: inhibition (10 μM),1.1%
same,inhibition at 10 µM,TLK1; read-out: % inhibition (range),0%
same,inhibition at 10 µM,TLK1; read-out: inhibition (10 μM),8.6%
same,% inhibition (range),"Wnk1, Wnk2, Wnk3",0.0%
same,inhibition (10 μM),"Wnk1, Wnk2, Wnk3",−69.3%
same,inhibition at 10 µM,eEF2K; read-out: % inhibition (range),0%
same,inhibition at 10 µM,eEF2K; read-out: inhibition (10 μM),-45.5%
